# Test results reported in PMC12434521, “Characterization of Next-Generation Inhibitors for the Inward-Rectifier Potassium Channel Kir2.1: Discovery of VU6080824” (ACS Medicinal Chemistry Letters, 2025).
# Legend:
# human Kir2.1 = molecular target: T1, human Kir2.1 (Homo sapiens, UniProt P63252); assay: Kir2.1 thallium flux assay; format: cell-based; settings: for IC50 / Thallium Flux Potency IC50: T-REx-HEK-293 cells expressing human Kir2.1, 4PL fit, top concentration 30 μM; for IC50: read-out: Thallium Flux Potency IC50; for inhibition at 30 µM: compounds not fitting 4PL (> 10 μM): value at 30 μM relative to 30 μM ML133, read-out: Thallium Flux Efficacy (% Inhibition), 30 μM measured value; for Thallium Flux Efficacy (% Inhibition) / Emax: efficacy from 4PL fit, relative to ML133; for Emax: read-out: Thallium Flux Efficacy (% Inhibition)
# T1 construct: expressed in transfected cells
# T1 sequence (P63252 1-427): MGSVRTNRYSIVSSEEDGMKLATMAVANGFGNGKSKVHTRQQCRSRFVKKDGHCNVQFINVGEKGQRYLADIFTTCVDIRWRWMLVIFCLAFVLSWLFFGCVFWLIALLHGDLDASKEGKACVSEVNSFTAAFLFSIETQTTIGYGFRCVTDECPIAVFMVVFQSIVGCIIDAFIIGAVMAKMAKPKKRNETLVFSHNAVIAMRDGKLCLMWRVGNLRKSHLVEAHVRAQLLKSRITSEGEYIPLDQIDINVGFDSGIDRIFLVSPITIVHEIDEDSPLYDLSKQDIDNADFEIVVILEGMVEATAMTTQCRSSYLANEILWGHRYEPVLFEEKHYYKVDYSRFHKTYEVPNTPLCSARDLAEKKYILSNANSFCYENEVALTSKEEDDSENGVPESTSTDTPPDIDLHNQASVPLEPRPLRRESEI
# Procedure: Thallium Flux Assay Experimental Conditions
# The Tl+ flux assays were conducted as previously described with modifications optimized for Kir2.1 cell line as described below.1
# Briefly, stable T-REx-HEK-293 cells expressing human K ir2.1 were cultured in DMEM growth medium (Catalog #11965-092, Gibco, Billings, MT) containing 10% heat-inactivated FBS (Catalog #16140, Gibco), 100 U/mL PenStrep, 5 μg/mL Blasticidin S, and 250 μg/mL Hygromycin.
# The day prior to the experiment, cells at ~90% confluency were resuspended in plating media, which consisted of the same components as the growth media, except that heat-inactivated FBS was replaced with dialyzed FBS (Catalog #26400, Gibco). Tetracycline was added to the plating media to achieve a final concentration of 1 μg/ml to induce hKir2.1 expression. Cells were then counted and plated at 15,000 cells/well in black-walled, amine- or PDL- coated, 384-well plates at 20 μl/well (Corning, Corning, NY). On the day of experiment, the media was removed from the cell plate and replaced with 20 μl/well of Tl+-sensitive dye loading solution containing 2.5 μg/ml Thallos-AM (Catalog #11000-050, ION Biosciences, San Marcos, TX) in assay buffer using a Multidrop Combi dispenser (Thermo Fisher Scientific, Walkham, MA). Cell plates loaded with dye solution were incubated for 1 hour at room temperature. Following incubation, the cell plate was washed with HBSS assay buffer containing 20 mM HEPES using a BioTek ELx 405 TS plate washer (Agilent, Santa Clara, CA), leaving 20 μl of assay buffer in each well. The cell plate was then transferred to a Panoptic kinetic imaging plate reader (WaveFront Biosciences, Franklin, TN) for imaging at 1 Hz, 482/35 nm excitation and 536/40 nm emission for 10 seconds. Following this, 20 μl/well of HBSS assay buffer containing test compounds at 2-fold over their final concentrations were added and imaging continued for another eight minutes, after which 10 μl/well of chloride-free Tl+ stimulus solution was added (Catalog #11000-050, ION Biosciences). The final Tl2SO4 concentration in cell plate post-Tl+ stimulus solution addition was 0.25 mM. Images were collected for an additional two minutes. A ten-point concentration series from 30 μM to 2 nM with a 1:3 dilution factor was generated using an Echo liquid handler 650 (Labcyte, San Jose, CA). Final DMSO concentration, 0.3% (v/v) in the assay was constant across all compound concentrations.
# The initial slopes of the Tl+-induced fluorescence changes were fit to a four-parameter logistic equation using our in-house software Waveguide to determine potency and efficacy values. […]
# Bauer, J. A.; Days, E. L.; Lindsley, C. […]
# [1] = Rat PK PBL cassette (i.v.); format: in vivo, Sprague-Dawley rat; settings: Sprague-Dawley, iv, male SD rat, 0.2 mg/kg i.v. cassette
# Source text: While ML133 has found use as a Kir2.1 tool molecule across many disease models, the in vivo PK of this and related compounds within the dibenzylamine chemotype have not previously been characterized. As a highly efficient method for profiling the PK of a compound set, we therefore examined ML133 (alongside 9 additional next-generation Kir2.1 inhibitors) in our rat PK PBL cassette dosing platform (Table ). − From this experimental setup, administration of a 4-compound bolus dose, plus a standard control, can be used to determine a variety of PK parameters in a high-throughput fashion. Specifically, Sprague–Dawley (SD) rats were given 0.2 mg/kg of each Kir2.1 inhibitor (i.v. dosing, 4 compounds +1 control, total dose 1 mg/kg) with PK measured across set time points up to 24 h. Additionally, a separate cohort of animals was utilized to assess total plasma-brain levels (PBL, ratio reported as Kp) of compound at a 0.25 time point. In this fashion, standard plasma-based PK parameters (elimination t 1/2, […] (MRT), plasma clearance (CLp), and volume of distribution (Vss)) were measured alongside a parallel assessment of total brain exposure.
# PK PBL Cassette Experimental Conditions
# 4 compounds plus one control were formulated as a solution in ethanol, PEG400, and DMSO (1:3:6 v/v, respectively) at a concentration of 1 mg/mL and administered as a single IV dose (1 mL/kg, 0.2 mg/kg per compound, total 1 mg/kg) to male, Sprague Dawley rats (n = 1) via injection into a surgically -implanted jugular vein catheter. Blood samples were collected serially from a surgically implanted carotid artery catheter in each animal over multiple post -administration time points (0.033, 0.117, 0.25, 0.5, 1, 2, 4, 7, and 24 hours) into chilled, K 2EDTA anticoagulant - fortified tubes and immediately placed on wet ice. The blood samples were then centrifuged (1700 rcf, 5 minutes, 4 °C) to ob tain plasma samples, which were stored at -80 °C until analysis […]
# For determination of the brain over plasma ratio (K p), the same cassette of compounds plus control were formulated in ethanol, PEG400, and DMSO (1:3:6 v/v, respectively) and administered as a single IV dose (1 mL/kg, 0.2 mg/kg per compound, total 1 mg/kg) to male, Sprague Dawley rats ( n = 1) via injection into a surgically-implanted jugular vein catheter. At 15 min post dosing, blood sample was collected terminally into chilled, K 2EDTA anticoagulant-fortified tube and immediately placed on wet ice. The bloo d sample was then centrifuged (1700 rcf, 5 minutes, 4 °C) to obtain plasma sample. At the same post-administration time point, whole brain sample was obtained by rapid dissection, rinsed with PBS, and immediately frozen in individual tissue collection box (dry ice). All brain and plasma samples were stored at -80 °C until […]
# Samples preparation for bioanalysis
# Plasma samples from the in-life phase of the study were thawed at ambient temperature (benchtop), and then aliquots (20 µL per sample) were transferred to a 96-shallow-well (V-bottom) plate. Matrix-matched quality control (QC) samples and a standard curve of each analyte (1 mg/mL DMSO stock solution) were prepared in blank rat plasma (K2EDTA-treated) via serial dilution and transferred (20 µL each) to the plate along with multiple blank plasma samples. MeCN (120 µL) containing IS (10 nM carbamazepine) was added to each well of the plate to precipitate protein. The plate was then centrifuged (4000 rcf, 5 minutes, ambient temperature), and resulting supernatants (60 µL each) were transferred to a new 96-shallow-well (V-bottom) plate containing an equal volume (60 µL per well) of water (Milli-Q purified). The plate was then sealed in preparation for LC-MS/MS analysis.
# Preparation of brain samples was identical to that of plasma samples except for the following modifications. While thawing, brains were weighed (inside their collection boxes using a universal empty collection box tare weight) and then subjected to mechanical homogenization […]
Structure (SMILES),IC50 (human Kir2.1) [µM],inhibition at 30 µM (human Kir2.1) [%],Thallium Flux Potency IC50 (human Kir2.1),Thallium Flux Efficacy (% Inhibition) (human Kir2.1),other results
FC(F)Oc1ccc(CNCc2cccc3ccccc23)cc1 [Compound 3a],> 10,45,–,–,–
N#Cc1ccc(CNCc2cccc3ccccc23)cc1 [Compound 3b],> 10,88,–,–,–
FS(F)(F)(F)(F)c1ccc(CNCc2cccc3ccccc23)cc1 [Compound 3c],–,–,inactive,inactive,–
O=C1CCCN1c1ccc(CNCc2cccc3ccccc23)cc1 [Compound 3d],–,–,inactive,inactive,–
Cc1cc(C)n(-c2ccc(CNCc3cccc4ccccc34)cc2)n1 [Compound 3e],> 10,50,–,–,–
OCc1ccc(CNCc2cccc3ccccc23)cc1 [Compound 3f],–,–,inactive,inactive,–
COc1ccc2c(c1)CCN(Cc1cccc3ccccc13)C2 [Compound 3g],–,–,inactive,inactive,–
c1ccc2c(c1)CN(Cc1cccc3ccccc13)CCO2 [Compound 3h],–,–,inactive,inactive,–
COCCOc1ccc(CNCc2cccc3ccccc23)cc1 [Compound 3j],–,–,inactive,inactive,–
O=S1(=O)CCCN1c1ccc(CNCc2cccc3ccccc23)cc1 [Compound 3k],–,–,inactive,inactive,–
CP(C)(=O)c1ccc(CNCc2cccc3ccccc23)cc1 [Compound 3l],–,–,inactive,inactive,–

# Continued, in another order:
IC50 (human Kir2.1) [µM],inhibition at 30 µM (human Kir2.1) [%],Thallium Flux Potency IC50 (human Kir2.1),Thallium Flux Efficacy (% Inhibition) (human Kir2.1),Structure (SMILES),other results
–,–,inactive,inactive,COc1ccc(CNCc2nccc3ccccc23)cc1 [Compound 5a],–
24.8,–,–,–,COc1ccc(CNCc2cncc3ccccc23)cc1 [Compound 5b],"Kp at 0.25 h ([1]; brain and plasma, 0.25 time point (15 min post dosing), read-out: Kp (total brain to plasma ratio)): 1.05; AUC ([1]; plasma, n = 1, read-out: AUC): 183 ng·h/mL; clearance ([1]; plasma, n = 1, read-out: CLp): 18.2 mL/min/kg; half-life ([1]; plasma, n = 1, read-out: Elim. t1/2 (converted)): 17.4 min; MRT ([1]; plasma, n = 1, read-out: MRT): 21.6 min; Vd ([1]; plasma, n = 1, read-out: Vss): 0.39 L/kg; Fold less potent than ML133 in the thallium flux assay (human Kir2.1): approximately 2 fold; Emax (human Kir2.1): 140%"
> 10,45,–,–,COc1ccc(CNCc2cccc3cnccc23)cc1 [Compound 5c],–
–,–,inactive,inactive,COc1ccc(CNCc2cccc3ncccc23)cc1 [Compound 5d],–
> 10,75,–,–,COc1ccc(CNCc2ccnc3ccccc23)cc1 [Compound 5e],–
–,–,inactive,inactive,COc1ccc(CNCc2cccn3ccnc23)cc1 [Compound 5f],–
–,–,inactive,inactive,COc1ccc(CNCc2cccc3c2OC(F)(F)O3)cc1 [Compound 5g],–
> 10,90,–,–,COc1ccc(CNCc2ccc(-c3ccccn3)cc2)cc1 [Compound 5l],–
10.8,–,–,–,COc1ccc(CNCc2ccc(-c3cccnc3)cc2)cc1 [Compound 5m],Emax (human Kir2.1): 98%
12.5,–,–,–,COc1ccc(CNCc2ccc(-c3ccncc3)cc2)cc1 [Compound 5n],Emax (human Kir2.1): 98%
10.7,–,–,–,COc1ccc(CNCc2ccc(-c3ccccc3F)cc2)cc1 [Compound 5o],Emax (human Kir2.1): 102%
9.3,–,–,–,COc1ccc(CNCc2ccc(-c3ccc(F)cc3)cc2)cc1 [Compound 5q],Emax (human Kir2.1): 99%
–,–,inactive,inactive,COc1ccc(CNCc2ccc(-c3cnn(C)c3)cc2)cc1 [Compound 5u],–
> 10,96,–,–,COc1ccc(CNCc2ccc(N3CCCC3)cc2)cc1 [Compound 5v],–
> 10,53,–,–,COc1ccc(CNCc2ccc(N3CCCCC3)cc2)cc1 [Compound 5w],–
> 10,46,–,–,COc1ccc(CNCc2ccc(N3CCCCCC3)cc2)cc1 [Compound 5x],–
–,–,inactive,inactive,COc1ccc(CNCc2ccc(N3CCOCC3)cc2)cc1 [Compound 5y],–
–,–,inactive,inactive,COc1ccc(CNCc2ccc(N3CCCCS3(=O)=O)cc2)cc1 [Compound 5z],–
